Several values for one entry are separate records, joined by “and”; a condition that tells them apart may be missing. Identical values can stand only once. Entries after “also recorded” stand apart in the source; their conditions may differ. Counter-ions that a name gives are not always drawn. Like-named read-outs stand apart in the source and are kept apart here. Non-standard residues stand in square brackets, D forms with d. Residues, ends and D or L forms follow the SMILES beside them.
Experiments:
[1] = system: opioid receptors (KOR, MOR, DOR); assay: mouse 55° C. warm water tail withdrawal assay, opioid antagonist activity; type: in vivo; details: for Antagonism (opioid receptor antagonised in vivo): dose not given
Procedure: (§1) The peptides of Table 1 shown below in Tables 3 and 4 were evaluated in radioligand binding assays for mu, kappa and delta opioid receptor affinities in vitro, and in the mouse 55° C. warm water tail withdrawal assay in vivo for antinociception and opioid antagonist activity.

[2] = rotorod test for sedation and motor coordination; type: in vivo; parameters: key: ✓ indicates tested (if no other comment then no significant effect)
[3] = molecular target: kappa opioid receptor (KOR) (Homo sapiens, UniProt P41145); assay: radioligand binding assay, kappa opioid receptor affinity; details: for Selectivity KOR/MOR/DOR: ratio of Ki values
Procedure: as §1

acute tolerance model = details: in vivo
[4] = molecular target: delta opioid receptor (DOR) (Homo sapiens, UniProt P41143); assay: radioligand binding assay, delta opioid receptor affinity; details: for Ki: n in parentheses, read-out: Ki (nM ± SEM) DOR
Procedure: as §1

[5] = mouse 55° C. warm water tail withdrawal assay, antinociception; type: in vivo; details: for ED50 (95% CI) i.c.v. / ED50 (95% CI) p.o.: antinociception; for Receptors involved: opioid receptors contributing to antinociception
Procedure: as §1

mu opioid receptor (MOR) = mu opioid receptor (MOR) (Homo sapiens, UniProt P35372); assay: radioligand binding assay, mu opioid receptor affinity
Procedure: as §1

locomotion (CLAMS) = type: in vivo; parameters: key: ✓ indicates tested (if no other comment then no significant effect)
[6] = other pain models (formalin, acetic acid stretching, nerve constriction; FIGS. 1-3B); details: in vivo
Excerpt: These models are based on the formalin assay, the acetic acid stretching assay, and the nerve constriction assay. The formalin and acetic acid stretching assays are indicative of activity against inflammatory pain (i.e., nociceptive pain) and the nerve constriction assay is indicative of activity against neuropathic pain.

[7] = conditioned place response assay; details: oral administration of the peptides
[8] = nerve constriction assay for neuropathic pain; type: in vivo, rodent; details: 10 mg/kg p.o.; compared to 50 mg/kg i.p. gabapentin and 2801
Procedure: In the nerve constriction assay, a nerve of a subject rodent is chronically constricted or cuffed and then the animal is assessed for response to pain stimuli such a paw withdrawal. […] Gabapentin is an accepted treatment for neuropathic pain.

respiratory depression = type: in vivo; parameters: key: ✓ indicates tested (if no other comment then no significant effect)
[9] = stress-induced reinstatement of cocaine seeking behavior, conditioned place preference assay; details: in vivo
Excerpt: In interesting comparison to the other cyclic tetrapeptides, compound 3613 (DDDD) is a mu opioid receptor (MOR) agonist and delta opioid receptor (DOR) antagonist. MOR agonists/DOR antagonists are of great interest because of their decreased liability profile (decreased addiction potential and liability profile such as tolerance) compared to MOR agonists like morphine.

[10] = n in parentheses, read-out: Ki (nM ± SEM) KOR
[11] = n in parentheses, read-out: Ki (nM ± SEM) MOR

kappa opioid receptor (KOR), sequence (P41145 whole entry): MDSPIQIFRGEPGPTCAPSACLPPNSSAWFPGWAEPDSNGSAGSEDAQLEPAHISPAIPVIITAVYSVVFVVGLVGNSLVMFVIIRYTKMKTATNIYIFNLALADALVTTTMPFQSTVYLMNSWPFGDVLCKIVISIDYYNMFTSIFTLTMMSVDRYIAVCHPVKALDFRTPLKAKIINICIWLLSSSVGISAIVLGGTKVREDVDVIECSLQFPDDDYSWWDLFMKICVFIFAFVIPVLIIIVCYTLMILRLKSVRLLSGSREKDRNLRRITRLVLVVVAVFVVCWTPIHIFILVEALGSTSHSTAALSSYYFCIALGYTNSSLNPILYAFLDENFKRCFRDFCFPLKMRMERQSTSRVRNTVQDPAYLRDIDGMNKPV
delta opioid receptor (DOR), sequence (P41143 whole entry): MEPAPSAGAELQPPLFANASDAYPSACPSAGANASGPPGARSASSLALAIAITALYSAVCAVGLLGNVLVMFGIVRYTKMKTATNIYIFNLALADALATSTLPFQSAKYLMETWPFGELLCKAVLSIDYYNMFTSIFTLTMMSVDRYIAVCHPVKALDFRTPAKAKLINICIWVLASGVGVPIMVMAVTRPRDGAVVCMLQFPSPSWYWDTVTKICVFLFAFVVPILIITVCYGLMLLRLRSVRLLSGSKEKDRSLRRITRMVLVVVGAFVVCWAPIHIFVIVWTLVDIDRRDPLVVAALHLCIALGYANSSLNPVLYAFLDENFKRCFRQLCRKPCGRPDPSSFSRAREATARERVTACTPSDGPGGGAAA
mu opioid receptor (MOR), sequence (P35372 whole entry): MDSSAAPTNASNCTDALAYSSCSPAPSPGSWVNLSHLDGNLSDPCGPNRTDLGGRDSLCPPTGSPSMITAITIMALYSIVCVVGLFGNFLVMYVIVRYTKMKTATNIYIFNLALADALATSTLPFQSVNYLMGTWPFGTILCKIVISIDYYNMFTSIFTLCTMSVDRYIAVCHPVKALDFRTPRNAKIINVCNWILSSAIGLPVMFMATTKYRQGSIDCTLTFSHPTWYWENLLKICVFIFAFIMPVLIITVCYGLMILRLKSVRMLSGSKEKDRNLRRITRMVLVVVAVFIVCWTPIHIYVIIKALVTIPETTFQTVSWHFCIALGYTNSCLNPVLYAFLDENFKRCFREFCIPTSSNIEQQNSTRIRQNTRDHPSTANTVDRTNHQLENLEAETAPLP

Compound | Antagonism (opioid receptor antagonised in vivo) [1] | Ki [3, 10] | Ki [4] [nM] | ED50 (95% CI) i.c.v. ([5]; i.c.v.) | ED50 (95% CI) p.o. ([5]; p.o.) | Receptors involved [5] | Ki (mu opioid receptor (MOR); [11]) [nM] | Rotorod (10 mg/kg, p.o.) [2] | Locomotion (CLAMS, 10 mg/kg, p.o.) (locomotion (CLAMS)) | Respiratory depression 10 mg/kg p.o. (respiratory depression) | also measured
O=C1N[C@@H](Cc2ccccc2)C(=O)N2CCC[C@@H]2C(=O)N[C@@H](Cc2ccccc2)C(=O)N[C@H]1Cc1c[nH]c2ccccc12 [JVA 2801, cyclo[Phe-D-Pro-Phe-Trp], reference compound] (cyclo(FWF[dP])) | KOR | 35.4 nM and 16.9 nM | 1720 ± 350 | 1.74 nmol | 3.49 mg/kg | KOR, MOR |  |  |  |  | Antagonism (opioid receptor antagonised in vivo) ([1]; listed as CJ-15,208): mixed opioid agonist/kappa opioid receptor (KOR) antagonist activity; also recorded: weak antagonist activities at kappa opioid receptors (KOR); Rotorod ([2]; 10 and 60 mg/kg): ✓ (10 and 60; Selectivity KOR/MOR/DOR [3]: 1/18/49 and 1/12/102; Acute Tolerance ED50 shift (acute tolerance model): 1.73 fold
O=C1N[C@H](Cc2c[nH]c3ccccc23)C(=O)N[C@@H](Cc2ccccc2)C(=O)N2CCC[C@@H]2C(=O)N[C@H]1Cc1ccccc1 [JVA 2802, cyclo[Phe-D-Pro-Phe-D-Trp], reference compound] (cyclo(F[dP]F[dW])) | KOR |  | 4190 ± 860 |  |  | KOR | 259 ± 29 |  |  |  | affinity for KOR [3]: retains KOR affinity comparable to the parent CJ-15,208; Selectivity KOR/MOR/DOR [3]: 1/37/599; Locomotion (CLAMS) (locomotion (CLAMS); 60 mg/kg): ✓; antinociception i.c.v. at 30 nmol ([5]; i.c.v., 30 nmol): ~40% @; antinociception p.o. at 60 mg/kg ([5]; p.o., 60 mg/kg): ~25% @
O=C1N[C@H](Cc2ccccc2)C(=O)N2CCC[C@@H]2C(=O)N[C@@H](Cc2ccccc2)C(=O)N[C@H]1Cc1c[nH]c2ccccc12 [JVA 3605, cyclo[D-Phe-D- Pro-Phe-Trp]] (cyclo([dF][dP]FW)) | exhibits KOR antagonist activity; also recorded: exhibit DOR antagonist activity | 5120 ± 690 nM | > 10000 | 0.75 nmol | 7.62 mg/kg | KOR, MOR, and DOR | > 10000 | effects similar to the KOR selective agonist U50,488, suggesting sedation; also recorded: ✓ (sig | ✓ | evidence of respiratory depression; also recorded: Sig. resp | Antagonism (dose, nmol) ([1]; 30 nmol): KOR (30),; Antagonism (dose, nmol) ([1]; 100 nmol): DOR (100); analgesic activity in other pain models [6]: significant analgesic properties; also recorded: show activity against pain; conditioned place preference (drug seeking behavior) or conditioned place aversion [7]: no evidence of inducing drug seeking behavior; also recorded: do not show evidence of conditioned place preference (drug seeking behavior) or conditioned place aversion; relief of neuropathic pain [8]: significant relief of neuropathic pain
O=C1N[C@@H](Cc2ccccc2)C(=O)N2CCC[C@@H]2C(=O)N[C@H](Cc2ccccc2)C(=O)N[C@H]1Cc1c[nH]c2ccccc12 [JVA 3606, cyclo[Phe-D-Pro-D-Phe-Trp]] (cyclo(F[dP][dF]W)) |  | 362 ± 51 nM | > 10000 | Partial agonist | > 30 mg/kg | KOR, MOR | 3920 ± 200 | ✓ | Sig. hypo- | ✓ | Antagonism (dose, nmol) ([1]; 100 nmol): None (100); Ki ([3]; read-out: Ki KOR): < 1000 nM; Ki (mu opioid receptor (MOR); read-out: Ki MOR): > 1000 nM; Acute Tolerance ED50 shift (acute tolerance model): Substantial; affinity for DOR [4]: negligible affinity; maximum antinociception i.c.v. ([5]; i.c.v., max): (~60% max); antinociception response p.o. at 30 mg/kg ([5]; p.o.): ~45%
O=C1N[C@H](Cc2ccccc2)C(=O)N[C@H](Cc2c[nH]c3ccccc23)C(=O)N[C@@H](Cc2ccccc2)C(=O)N2CCC[C@H]12 [JVA 3608, cyclo[Phe-D-Pro-D-Phe-D-Trp]] (cyclo(F[dP][dF][dW])) | exhibit DOR antagonist activity | 353 ± 19 nM | > 10000 | 0.56 nmol | 4.72 mg/kg | KOR, MOR, and DOR | 5800 ± 1450 | ✓ | Sig. hypo- | evidence of respiratory depression; also recorded: Resp | Antagonism (dose, nmol) ([1]; 100 nmol): DOR (100); Ki ([3]; read-out: Ki KOR): < 1000 nM; analgesic activity in other pain models [6]: significant analgesic properties; analgesic activity in other pain models ([6]; listed as 3708): show activity against pain; Ki (mu opioid receptor (MOR); read-out: Ki MOR): > 1000 nM; Acute Tolerance ED50 shift (acute tolerance model): 9.87 fold; relief of neuropathic pain [8]: significant relief of neuropathic pain; affinity for DOR [4]: negligible affinity
O=C1N[C@H](Cc2c[nH]c3ccccc23)C(=O)N[C@H](Cc2ccccc2)C(=O)N2CCC[C@@H]2C(=O)N[C@H]1Cc1ccccc1 [JVA 3609, cyclo[D-Phe-D- Pro-Phe-D-Trp]] (cyclo(F[dW][dF][dP])) |  | > 10000 nM | > 10000 | 2.39 nmol | ≥10 mg/kg | mu opioid receptors (MOR) are not involved; also recorded: DOR, KOR | > 10000 | ✓ (sig | Sig. hypo- | evidence of respiratory depression; also recorded: Resp | Antagonism (dose, nmol) ([1]; 30 nmol): None (30); antinociception response p.o. at 30 mg/kg ([5]; p.o.): (~60% at
O=C1N[C@@H](Cc2ccccc2)C(=O)N2CCC[C@H]2C(=O)N[C@@H](Cc2ccccc2)C(=O)N[C@H]1Cc1c[nH]c2ccccc12 [JVA 3612, cyclo[Phe-Pro- Phe-Trp]] (cyclo(FPFW)) |  |  |  | 3.52 (2.01-6.42) nmol | 4.28 (3.56-5.27) mg/kg | KOR, MOR and DOR |  |  |  |  | 
O=C1N[C@H](Cc2ccccc2)C(=O)N[C@H](Cc2c[nH]c3ccccc23)C(=O)N[C@H](Cc2ccccc2)C(=O)N2CCC[C@H]12 [JVA 3613, cyclo[D-Phe-D-Pro-D-Phe-D-Trp]] (cyclo([dF][dP][dF][dW])) | exhibit DOR antagonist activity | 2010 ± 270 nM | > 10000 | 0.51 nmol | 2.47 mg/kg | kappa opioid receptors (KOR) are not involved; also recorded: DOR, MOR | > 10000 | ✓ | ✓ | ✓ | Antagonism (dose, nmol) ([1]; 30 nmol): DOR (30); prevention of stress-induced reinstatement of cocaine seeking behavior [9]: effective in preventing stress-induced reinstatement of cocaine seeking behavior
O=C1N[C@H](Cc2ccccc2)C(=O)N2CCC[C@H]2C(=O)N[C@H](Cc2ccccc2)C(=O)N[C@H]1Cc1c[nH]c2ccccc12 [JVA 3638, cyclo[D-Phe- Pro-D-Phe-Trp]] (cyclo(P[dF]W[dF])) |  |  |  | 8.93 (1.96-19.5) nmol |  |  |  |  |  |  | 
O=C1N[C@H](Cc2c[nH]c3ccccc23)C(=O)N[C@@H](Cc2ccccc2)C(=O)N2CCC[C@H]2C(=O)N[C@H]1Cc1ccccc1 [JVA 3639, cyclo[Phe-Pro- Phe-D-Trp]] (cyclo(FPF[dW])) |  |  |  | 49.7 (34.8-69.8) nmol |  |  |  |  |  |  | 
CN1CC[C@]23c4c5ccc(O)c4O[C@H]2[C@@H](O)C=C[C@H]3[C@H]1C5 [Morphine sulfate, morphine, reference compound] |  |  |  |  |  |  |  |  |  |  | conditioned place preference (drug seeking behavior) or conditioned place aversion [7]: significant conditioned place preference

Source: US10259843B2, “Cyclic tetrapeptide stereoisomers” (University of Kansas, priority 2014, dated 2019)
